We go through six compounds from US6861524B2, “Acyl and sulfonyl derivatives of 6,9-disubstituted 2-(trans-1,4-diaminocyclohexyl)-purines and their use as antiproliferative agents” (Aventis Pharmaceuticals Inc., priority 2000, dated 2005).

In one data set the test system is HL-60 human leukemia. As to the kind of experiment: HL-60 human leukemia xenograft in nude mice. Format: in vivo. Particulars: Table 5, control 8341 ± 5355. How it is done: (§1) Antitumor efficacy is assessed using two subcutaneous human tumor xenograft models. The studies are performed using conventional assay techniques. Briefly, HL-60 (leukemia, 5×10^5 cells) and PC-3 (prostate, 5×10^6 cells) tumor cells are injected subcutaneously into nude mice (Cr1-CD1-Br-nu, Charles River Laboratory, Wilmington, Mass.). Dosing with compounds began when tumors reached 50 to 100 mm^3. The dose route/schedule for the test compounds is ip/q1d (5×/wk). The test doses are set based on the maximum tolerated dose (MTD). […] The test doses for the efficacy studies are set at ⅓rd the MTD (low dose) and the MTD (high dose). The results are shown in Tables 4 and 5 (HL-60, leukemia) (PC-3, prostate cancer). The length of the treatment phase is dependent on the tumor growth rate for the two models. This treatment phase is typically about 3 weeks for the HL-60 model and about 5 weeks for the PC-3 model. […] Dosing with flavopiridol is for the same time frame as for the experimental compounds in both xenograft models. Tumor volume (twice weekly) and body weights (once weekly) are monitored throughout the course of the treatment phase of the experiment. Tumor sizes are measured by external caliper measurements of protruding tumor. Volumes are calculated using the following formula: volume=½ (a×b2), where b is the smaller of two perpendicular diameters.
Background: In xenograft studies the graft and the host belong to different species.

A short description of data set [1]: Plasma pharmacokinetics in mice after single intravenous cassette doses. Particulars: for Mean Conc. in plasma: mice, Cassette #4, single 15 mg/kg iv cassette dose (3 mg/kg/compound).
Description: Male mice are given single intravenous cassette doses of CDK inhibitor compounds.
A single intravenous cassette dose (18 or 15 mg/kg free base) is administered. For each compound, this is equivalent to a dose of approx. 3 mg/kg free base. […] The dose is administered at a volume of 10 ml/kg (total volume of approximately 0.25 ml/animal).
Male mice (Hsd:ICR (CD-1® SD®), Harlan), each weighing approximately 20-30 g at the start of the study. […] Water is available ad libitum throughout the study.
A single cassette dose of 5-6 compounds is administered by bolus injection into the tail vein over a 10-15-second period. […] Whole blood (approximately 0.6 ml/sample) is obtained by cardiac puncture and transferred to 3 ml glass tubes containing 45 U sodium heparin.
Sample Processing: Plasma: Whole blood is centrifuged at approximately 3,200 rpm for 10 min at approximately 5° C. and the plasma (approx. 0.3 ml/sample) is transferred to chilled plastic vials and stored at approx. −70° C. until bioanalysis.
Sample Analysis: Concentrations of each test article in plasma are quantitated by a non-validated method based on LC/MS using the following protocol.
Samples are removed from the freezer, allowed to thaw at room temperature, and vortexed to insure complete homogenization prior to sample manipulation. Samples are then prepared according to the following scheme: • 1. transfer 48 μL of plasma (blank mouse sample) into a 12×75 mm test tube. • 2. add 12 μL of working standard to the blank plasma for standard curve preparation. • 3. […] Inject 25 μL on LC/MS. Chromatographic Conditions:
Data Analysis: Concentrations of Compounds in plasma of individual animals are determined by bioanalytics. […] Statistical analyses are limited to simple expressions of variation (mean and standard deviation). The plasma AUC (area-under-curve) is determined by the linear trapezoidal rule. […] All PK parameters are determined by noncompartmental methods using WinNonlin version 3.0 (Pharsight Corp).
The following information is based on a graph of the semi-log of the plasma concentration in ng/ml versus collection time in hours. • “Cmax” represents the maximum plasma concentration. • “t1/2” represents the half-life of the compound. • “AUC0-∞” represents the calculated area under the curve. • “AUC % Extrap(obs.)” represents the extrapolated area under the curve. • “Cls” is the clearance rate.
Data set [2] is described as follows: Red blood cell binding (RBC to plasma ratio), human whole blood. Type of data set: in vitro ADME. Conditions: 30 minutes at 37° C., nominal 500 ng/ml.
For another data set, the system named is HL-60. The data set can be described thus: In vitro proliferation assay (MTT), HL-60. Format: cell-based, human. Conditions: read-out: HL-60 Leuk. (IC50 μM). How it is done:
(§2) The proliferation of tumor cells can be measured using a tetrazolium salt-based assay known as the MTT (3-[4,5-Dimethylthiazol-2-yl]-2,5-diphenyltetrazolium bromide) assay. The proliferation test is performed essentially as described by Carmichael et al., Cancer Res. 47: 936-942, 1987. For the assay, the cell lines are plated onto 96 well plates at 1000 to 2500 cells/well (depending on the properties of the individual cell lines), left to attach and recover overnight. […] After 3 days, the cells are incubated with MTT dye (3-[4,5-Dimethylthiazol-2-yl]-2,5-diphenyltetrazolium bromide, Sigma #M5655, 10 mg/ml in Hank's Buffered Saline) to estimate the amount of live cells remaining vs. concentration for the test compounds. Specifically, MTT solution is added to a final concentration of xx mM and the plates incubated at 37 C for 2 to 4 hr. The MTT and culture medium is then removed from the cultures and 200 μl of DMSO is added to solubilize the dye from the cell layer. The absorbance at 570 nm is determined for each culture using a Spectramax plate reader (Molecular Devices).
(§3) IC50s were determined from the raw data from either the MTT or SRB assays.
(§4) All of the cell lines were obtained from American Type Tissue Collection, with the ATCC accession number in parentheticals. […]

The target in a further data set is cdk2/cyclin E (Homo sapiens, UniProt P24941). The data set can be described thus: Cyclin-dependent kinase assay, cdk2/cyclin E (GST-pRb substrate). Conditions: read-out: CDK2 IC50; inhibition of cyclin E/CDK 2 enzyme activity.
The next data set deals with cdk1/cyclin B (Homo sapiens, UniProt P06493). As to the kind of experiment: Cyclin-dependent kinase assay, cdk1/cyclin B (Histone H1 substrate). Particulars: read-out: CDK1 IC50; inhibition of cyclin B/CDK 1 enzyme activity.
For data set [3], the system named is PC-3 human prostate tumors. The data set can be described thus: PC-3 human prostate tumor xenograft in nude mice. Type of data set: in vivo. Conditions: Table 5, control 1308 ± 852. How it is done: as §1
The test system of another data set is Jurkat. The data set can be described thus: In vitro proliferation assay (MTT), Jurkat. Type of data set: cell-based, human. Conditions: read-out: Jurkat Leuk. (IC50 μM). The method, then:
as §2, §3, §4

The test system of another data set is MDA-MB-435. As to the kind of experiment: In vitro proliferation assay (MTT), MDA-MB-435. Format: cell-based, human. Conditions: mean (SD, n) where given, read-out: MB-435 Breast (IC50 μM). The method, then:
as §2, with “The proliferation test is performed essentially as described by Carmichael et al., Cancer Res. 47: 936-942, 1987.” left out, “Specifically, MTT solution is added to a final concentration of xx mM and the plates incubated at 37 C for 2 to 4 hr.” left out
as §3
(§5) All of the cell lines were obtained from American Type Tissue Collection, with the ATCC accession number in parentheticals. MCF-7 and MDA-MB-231 cells were grown in improved minimum essential medium (Biofluids) without phenol red, supplemented with 5% fetal bovine serum, 0.01 mg/ml gentamicin and 3 mM L-glutamine.

The next data set addresses cdk4/cyclin D1 (Homo sapiens, UniProt P11802). As to the kind of experiment: Cyclin-dependent kinase assay, cdk4/cyclin D1 (GST-pRb substrate). Format: biochemical.
In another data set the test system is PC-3. As to the kind of experiment: In vitro proliferation assay (MTT), PC-3. Type of data set: cell-based, human. Conditions: MTT assay; mean (SD, n) where given; read-out: PC-3 Prostate (IC50 μM). The method, then: as §2, with “The proliferation test is performed essentially as described by Carmichael et al., Cancer Res. 47: 936-942, 1987.” left out, “Specifically, MTT solution is added to a final concentration of xx mM and the plates incubated at 37 C for 2 to 4 hr.” left out
as §3, §5
A general note: Tetrazolium assays rely on reduction of a dye to a coloured formazan, in cell work by metabolically active cells.

The test system of the next data set is NCI-H460. As to the kind of experiment: In vitro proliferation assay (MTT), NCI-H460. Format: cell-based, human. Particulars: read-out: H-460 Lung (IC50 μM). The method, then:
as §2, §3, §4

In a further data set the test system is Colo-205. As to the kind of experiment: In vitro proliferation assay (MTT), Colo-205. Conditions: read-out: Colo-205 Colon (IC50 μM). Format: cell-based. The method, then: as §2, §3
The test system of another data set is SMC. Conditions: in vitro and in vivo; Ruef et al. 1999; cited from earlier work.
Data set [4] concerns PC12 cells, or rat sympathetic neurons. Particulars: Park et al. 1997, cited from earlier work; for concentration giving maximal protection from death: camptothecin-treated PC12 cells or rat sympathetic neurons; for cell death at day 6: camptothecin-treated neuronal cells.
Another data set has as its system cortical neurons. Particulars: Park et al. 1997; cited from earlier work.
The test system of the next data set is herpes simplex virus. Particulars: Schang et al. 1998; cited from earlier work.

Like-named read-outs stand apart in the source and are kept apart here.

Sequence of cdk4/cyclin D1 (P11802 whole entry): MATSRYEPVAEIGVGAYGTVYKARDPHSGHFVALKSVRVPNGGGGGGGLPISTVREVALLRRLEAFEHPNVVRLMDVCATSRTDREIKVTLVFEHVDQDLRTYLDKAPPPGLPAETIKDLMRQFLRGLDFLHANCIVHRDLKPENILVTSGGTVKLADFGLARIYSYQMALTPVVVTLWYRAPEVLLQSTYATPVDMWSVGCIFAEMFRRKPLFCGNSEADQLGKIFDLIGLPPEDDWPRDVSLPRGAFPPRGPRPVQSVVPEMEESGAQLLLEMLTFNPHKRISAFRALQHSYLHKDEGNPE
Sequence of cdk4/cyclin D1 (P24385 whole entry partner): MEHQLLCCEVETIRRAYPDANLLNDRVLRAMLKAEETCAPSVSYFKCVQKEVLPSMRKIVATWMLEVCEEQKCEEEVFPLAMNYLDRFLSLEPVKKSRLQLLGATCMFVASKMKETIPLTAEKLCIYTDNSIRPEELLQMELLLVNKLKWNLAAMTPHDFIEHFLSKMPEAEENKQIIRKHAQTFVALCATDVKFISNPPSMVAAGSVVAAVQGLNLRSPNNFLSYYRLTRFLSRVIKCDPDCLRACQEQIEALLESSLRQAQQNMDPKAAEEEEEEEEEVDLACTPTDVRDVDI
Sequence of cdk1/cyclin B (P06493 whole entry): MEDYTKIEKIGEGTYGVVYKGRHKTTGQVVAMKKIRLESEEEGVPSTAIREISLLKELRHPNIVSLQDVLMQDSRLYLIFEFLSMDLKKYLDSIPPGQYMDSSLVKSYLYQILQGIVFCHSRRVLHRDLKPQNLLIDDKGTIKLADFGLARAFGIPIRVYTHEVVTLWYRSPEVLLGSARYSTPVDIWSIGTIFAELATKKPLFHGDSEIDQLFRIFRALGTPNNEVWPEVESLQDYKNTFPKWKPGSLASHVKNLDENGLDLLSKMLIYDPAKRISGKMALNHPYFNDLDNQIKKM
Sequence of cdk1/cyclin B (P14635 whole entry partner): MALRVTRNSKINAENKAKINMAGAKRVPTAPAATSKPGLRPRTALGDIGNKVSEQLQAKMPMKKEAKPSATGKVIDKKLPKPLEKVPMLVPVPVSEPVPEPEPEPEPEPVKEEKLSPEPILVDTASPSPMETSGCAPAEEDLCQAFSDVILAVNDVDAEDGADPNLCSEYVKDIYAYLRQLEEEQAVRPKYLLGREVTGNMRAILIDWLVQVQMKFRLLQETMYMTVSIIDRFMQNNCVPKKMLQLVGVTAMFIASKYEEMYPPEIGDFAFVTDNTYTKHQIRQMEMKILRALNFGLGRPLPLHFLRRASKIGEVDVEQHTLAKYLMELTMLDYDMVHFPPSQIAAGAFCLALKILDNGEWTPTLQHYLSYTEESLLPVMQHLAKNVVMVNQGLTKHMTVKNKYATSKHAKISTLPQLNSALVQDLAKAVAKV
Description for cdk1/cyclin B: (§6) The IC50 values for cdk1/cyclin B, cdk2/cyclin E, and cdk4/cyclin D1 inhibition are determined using the following methods:
The cdk1 sequence (accession number Y00272) is amplified by PCR and cloned into the BamHI and SalI sites of pFASTBAC1 (Life Technologies).
The cyclin B1 sequence (accession number M25753) is amplified by PCR and cloned into the BamHI and SalI sites of pFASTBAC1 (Life Technologies).
(§7) The cDNA for each of the cyclin-dependent kinases (CDK) and the corresponding cyclins are cloned into the baculovirus expression vector, pFASTBAC1 (Life Technologies). The sequences of each of the constructs are confirmed by automated fluorescent DNA sequencing according to the manufacture's protocol (Perkin Elmer/Applied Biosystems Inc).
(§8) The insect cell (Sf9) expression is optimized for each of the CDK/cyclin pairs according to the manufacturer's protocols (Life Technologies).
(§9) The viruses are added to the cells and the culture is incubated at 27° C. for the desired time. The cells are harvested by centrifugation at 3000 rpm for 10 minutes. The cells are snap frozen on dry ice and stored at −80° C.
(§10) Cell extracts are made following a standard procedure. The cell pellet is resuspended in lysis buffer (50 mM HEPES, pH 8.0, 10 mM MgCl2, 1 mM DTT, 2.5 mM EGTA, 1 mM EDTA, 10 mM β-glycerophosphate, 1 mM sodium vanadate, 1 mM sodium fluoride, 1×Protease inhibitor cocktail). The cells are lysed using the microfluidizer (Microfluidics) for 20 minutes. Cell debris is removed by centrifugation at 100,000×g. The cell extracts are aliquoted in 1 ml aliquots, frozen on dry ice, and stored at −80° C.
The kinase reactions are performed following a standard procedure. The enzyme and inhibitor are diluted in kinase buffer (50 mM HEPES, pH 8.0, 10 mM MgCl2, 2.5 mM EGTA, 10 mM β-glycerophosphate, 1 mM sodium vanadate, 1 mM sodium fluoride, and 1 mM DTT) and pre-incubated for 30 minutes. […] The cdk1 enzyme activity is assayed using Histone H1 (Sigma) in the presence of 10 μM ATP for 30 min at room temperature. The reactions are terminated by the addition of 50 μL of 10 mM cold ATP to stop the reactions. The reactions are transferred to a pre-soaked 96-well multi-screen plate containing 30 μL of 100% TCA per well. After incubation for one hour at room temperature, the plates are washed twice with 200 μl of 20% TCA, followed by 200 μl of 10% TCA and finally with 200 μl of 5% TCA. After drying the plates at room temperature, the filter plates are placed in adapter plates (Packard) and 40 μl of Microscint-O® (Packard) is added to each well. Top Seal A film is used to cover the plates before counting in a Top Count Scintillation Counter.
The % remained activity of the indicated Cdk/cyclin kinase complex in the presence of inhibitor is calculated by the ratio of cpm in the presence of inhibitor to cpm in the absence of inhibitor (% Activity=vi/vo×100%).
Description for cdk2/cyclin E: as §6
The cdk2 sequence (accession number X62071) is amplified by PCR and cloned into the SpeI and XhoI sites of pFASTBAC1 (Life Technologies). […] This primer would anneal in the 3′ untranslated sequence.
The cyclin E sequence (accession number M73812) is amplified by PCR and cloned into the XbaI and XhoI sites of pFASTBAC1 (Life Technologies).
as §7, §8, §9, §10
The kinase reactions are performed following a standard procedure. […]
The transformed bacteria are grown overnight to saturation, then diluted in YT broth and incubated at 37° C. for 2 h. […] The beads are washed with kinase buffer and then quantitated of Coomassie blue-stained proteins separated by SDS-PAGE using a protein standard of known concentration.

As for `Cc1ccc(OC(=O)N2CCC(Nc3nc(N[C@H]4CC[C@H](N)CC4)nc4c3ncn4C3CCCC3)CC2)cc1.Cl.Cl` [Compound 82, trans-4-[2-(4-Amino-cyclohexylamino)-9-cyclopentyl-9H-purin-6-ylamino]-piperidine-1-carboxylic acid p-tolyl ester dihydrochloride], the “HL60 Mean Vol. ± SD” value with HL-60 human leukemia (1 mg/kg ip q1d 5x/wk) is 5164 ± 5516. Besides, the “Mean Conc. in plasma” value in data set [1] (0.083 h) is 1458.0 ± 77.4 ng/mL; in data set [1] (0.25 h) it was 875.3 ± 96.7 ng/mL; in [1] (0.5 h), 369.6 ± 40.0 ng/mL; in data set [1] (1 h), 133.7 ± 16.3 ng/mL; in [1] (3 h), 37.5 ± 10.7 ng/mL; in [1] (6 h), 14.5 ± 3.4 ng/mL. Moreover, the “Mean Conc. in plasma” value in [1] (8 h) is 12.3 ± 2.2 ng/mL; in data set [1] (24 h) it was “BLQ”. The compound also came in with a Cls in data set [1] (mouse plasma, iv Cassette #4, 3 mg/kg/compound (15 mg/kg total dose)) of 53.0 mL/min/kg. Moreover, the “Mean Red Blood Cell to Plasma Ratio” value in data set [2] came out at 5.8.

What is called IC50 is the concentration at which inhibition is half-maximal. With “trans-1-{4-[2-(4-Amino-cyclohexylamino)-9-cyclopentyl-9H-purin-6-ylamino]-piperidin-1-yl}-1-(4-trifluoromethyl-phenyl)-methanone dihydrochloride [Compound 3]”, the concentration for half-maximal inhibition (IC50) with HL-60 was found to be 0.13 µM; at cdk2/cyclin E it was 48 nM; on cdk1/cyclin B, 55 nM; in the data set with Jurkat, 0.22 µM; in the data set with MDA-MB-435 it was 0.25 µM; on cdk4/cyclin D1 (inhibition of cyclin D1/CDK 4 enzyme activity), 1120 nM. The 50% inhibitory concentration (IC50) with PC-3 came out at 0.66 µM. The “PC-3 Mean Vol. ± SD” value in data set [3] (1 mg/kg ip q1d 5x/wk) was determined as 671 ± 672; in data set [3] (3 mg/kg ip q1d 5x/wk), 785 ± 473. Also, the results for the “HL60 Mean Vol. ± SD” value in the data set with HL-60 human leukemia (1 mg/kg ip q1d 5x/wk) and with HL-60 human leukemia (3 mg/kg ip q1d 5x/wk) were 6370 ± 4655 and 6092 ± 4278, respectively.

With “trans-N^2-(4-Amino-cyclohexyl)-9-cyclohexyl-N^6-[1-(4-chloro-benzenesulfonyl)-piperidin-4-yl]-9H-purine-2,6-diamine dihydrochloride [Compound 108]”, the concentration for half-maximal inhibition (IC50) worked out at 0.29 µM with NCI-H460; 0.18 µM in the data set with Colo-205; 10 nM at cdk2/cyclin E; 7 nM on cdk1/cyclin B; 0.14 µM in the data set on MDA-MB-435; 170 nM at cdk4/cyclin D1. Further, the half-inhibitory concentration (IC50) with PC-3 turned out to be 0.43 µM.

Take `CN1CC[C@H](c2c(O)cc(O)c3c(=O)cc(-c4ccccc4Cl)oc23)[C@H](O)C1` [Flavopiridol]: the SMC growth entry with SMC was “inhibit SMC growth in vitro and in vivo”. Moreover, in [4], the “concentration giving maximal protection from death” value was 1 µM and the “cell death at day 6” value was “approximately 30%”.

In the case of `Cn1cnc2nc(NCCO)nc(NCc3ccccc3)c21` [iso-olomoucine], the “prevention of cell death of camptothecin-treated neuronal cells” value (in the data set on cortical neurons; in [4] (PC12 cells / sympathetic neurons)) was “failed to prevent the cell death” in each case.

Take `Cn1cnc2c(NCc3ccccc3)nc(NCCO)nc21` [Olomoucine, 6-(benzylamino)-2-[(2-hydroxyethyl)amino]-9-methylpurine]: the “replication of herpes simplex virus” value in the data set with herpes simplex virus is reported as “inhibited the replication”. For the same compound, in data set [4], the “concentration giving maximal protection from death” value was 200 µM and the “cell death at day 6” value is reported as “approximately 30%”.
